{
  "source": "ChEMBL document CHEMBL1147449",
  "about": "“Synthesis of analogues of a potent antitumor saponin OSW-1” (Bioorg Med Chem Lett, 2004)",
  "conditions_in_all_cases": "Homo sapiens",
  "key": {"Ishikawa [1]": {"test_system": "Ishikawa", "experiment": "Inhibition of the necrosis induced by compound in endometrial cancer ishikawa cell line after 24 hr", "type": "functional, cell-based"}, "Ishikawa [2]": {"test_system": "Ishikawa", "experiment": "Cytotoxicity (growth inhibition) against endometrial cancer ishikawa cell line at 10E-5 mol/L after 24 hr", "type": "functional"}, "Ishikawa [3]": {"test_system": "Ishikawa", "experiment": "Cytotoxicity (growth inhibition) against endometrial cancer ishikawa cell line at 10E-6 mol/L after 24 hr", "type": "functional"}, "Ishikawa [4]": {"test_system": "Ishikawa", "experiment": "Cytotoxicity (growth inhibition) against endometrial cancer ishikawa cell line at 10E-7 mol/L after 24 hr", "type": "functional"}, "Ishikawa [5]": {"test_system": "Ishikawa", "experiment": "Cytotoxicity (growth inhibition) against endometrial cancer ishikawa cell line at 10E-8 mol/L after 24 hr", "type": "functional"}, "Ishikawa [6]": {"test_system": "Ishikawa", "experiment": "Cytotoxicity (growth inhibition) against endometrial cancer ishikawa cell line at 10E-9 mol/L after 24 hr", "type": "functional"}, "MCF7 [7]": {"test_system": "MCF7", "experiment": "Cytotoxicity (growth inhibition) against breast cancer MCF-7 cell line at 10E-6 mol/L", "type": "functional"}, "MCF7 [8]": {"test_system": "MCF7", "experiment": "Cytotoxicity (growth inhibition) against breast cancer MCF-7 cell line at 10E-7 mol/L", "type": "functional"}, "MCF7 [9]": {"test_system": "MCF7", "experiment": "Cytotoxicity (growth inhibition) against breast cancer MCF-7 cell line at 10E-8 mol/L", "type": "functional"}, "MCF7 [10]": {"test_system": "MCF7", "experiment": "Cytotoxicity (growth inhibition) against breast cancer MCF-7 cell line at 10E-9 mol/L", "type": "functional"}, "MCF7 [11]": {"test_system": "MCF7", "experiment": "Inhibition of the necrosis induced by compound in breast cancer MCF-7 cell line", "type": "functional, cell-based"}, "MDA-MB-231 [12]": {"test_system": "MDA-MB-231", "experiment": "Inhibition of the necrosis induced by compound in breast cancer MDAMB-231 cell line", "type": "functional, cell-based"}, "MDA-MB-231 [13]": {"test_system": "MDA-MB-231", "experiment": "Cytotoxicity (growth inhibition) against breast cancer MDAMB-231 cell line at 10E-5 mol/L", "type": "functional"}, "MDA-MB-231 [14]": {"test_system": "MDA-MB-231", "experiment": "Cytotoxicity (growth inhibition) against breast cancer MDAMB-231 cell line at 10E-6 mol/L", "type": "functional"}, "MDA-MB-231 [15]": {"test_system": "MDA-MB-231", "experiment": "Cytotoxicity (growth inhibition) against breast cancer MDAMB-231 cell line at 10E-7 mol/L", "type": "functional"}, "MDA-MB-231 [16]": {"test_system": "MDA-MB-231", "experiment": "Cytotoxicity (growth inhibition) against breast cancer MDAMB-231 cell line at 10E-8 mol/L", "type": "functional"}, "MDA-MB-231 [17]": {"test_system": "MDA-MB-231", "experiment": "Cytotoxicity (growth inhibition) against breast cancer MDAMB-231 cell line at 10E-9 mol/L", "type": "functional"}, "MCF7 [18]": {"test_system": "MCF7", "experiment": "Cytotoxicity (growth inhibition) against breast cancer MCF-7 cell line at 10E-5 mol/L", "type": "functional"}},
  "data": [
    {"smiles": "COc1ccc(C(=O)O[C@H]2[C@H](O[C@@H]3[C@@H](OC(C)=O)[C@H](O[C@H]4C[C@H]5[C@@H]6CC=C7C[C@@H](O)CC[C@]7(C)[C@H]6CC[C@]5(C)[C@@]4(O)[C@H](C)C(=O)CCC(C)C)OC[C@@H]3O)OC[C@@H](O)[C@@H]2O)cc1", "values": [
      {"measurement": "IC50", "setting": "Ishikawa [1]", "result": 3000, "unit": "nM"},
      {"measurement": "inhibition at 10 µM", "setting": "Ishikawa [2]", "result": 100, "unit": "%"},
      {"measurement": "inhibition at 1 µM", "setting": "Ishikawa [3]", "result": 100, "unit": "%"},
      {"measurement": "inhibition at 0.1 µM", "setting": "Ishikawa [4]", "result": 100, "unit": "%"},
      {"measurement": "inhibition at 0.01 µM", "setting": "Ishikawa [5]", "result": 100, "unit": "%"},
      {"measurement": "inhibition at 0.001 µM", "setting": "Ishikawa [6]", "result": 95, "unit": "%"},
      {"measurement": "inhibition at 1 µM", "setting": "MCF7 [7]", "result": 100, "unit": "%"},
      {"measurement": "inhibition at 0.1 µM", "setting": "MCF7 [8]", "result": 100, "unit": "%"},
      {"measurement": "inhibition at 0.01 µM", "setting": "MCF7 [9]", "result": 100, "unit": "%"},
      {"measurement": "inhibition at 0.001 µM", "setting": "MCF7 [10]", "result": 87, "unit": "%"},
      {"measurement": "IC50", "setting": "MCF7 [11]", "result": 7000, "unit": "nM"},
      {"measurement": "IC50", "setting": "MDA-MB-231 [12]", "result": 500, "unit": "nM"},
      {"measurement": "inhibition at 10 µM", "setting": "MDA-MB-231 [13]", "result": 100, "unit": "%"},
      {"measurement": "inhibition at 1 µM", "setting": "MDA-MB-231 [14]", "result": 100, "unit": "%"},
      {"measurement": "inhibition at 0.1 µM", "setting": "MDA-MB-231 [15]", "result": 100, "unit": "%"},
      {"measurement": "inhibition at 0.01 µM", "setting": "MDA-MB-231 [16]", "result": 100, "unit": "%"},
      {"measurement": "inhibition at 0.001 µM", "setting": "MDA-MB-231 [17]", "result": 100, "unit": "%"},
      {"measurement": "inhibition at 10 µM", "setting": "MCF7 [18]", "result": 100, "unit": "%"}
    ]}
  ]
}
